From patent publication US8859574B2 (IRM LLC, priority 2008, dated 2014)

Biological target: T1, IGF-1R Ba/F3 (Homo sapiens, UniProt P08069)
T1 construct: fused on or other part: TEL- (or BCR-) IGF-1R in Ba/F3: the kinase part holds the site
Assay: Ba/F3 Cell Viability Inhibition Assay (IGF-1R Ba/F3)
Assay type: cell-based, murine
Settings: Tel-TK transformed Ba/F3 cells, 48 hours, Britelite luminescence
In short: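 A 48 h compound treatment at 37 °C (3750 cells/well) was followed by Britelite luminescence to measure viability. Cells were Ba/F3 pro-B cells, IL-3-independent via TEL-fused IGF-1R kinase transduction. A logistic fit gave IC50 as 50% viability relative to DMSO control.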

T1 sequence (P08069 999-1274 limits assumed): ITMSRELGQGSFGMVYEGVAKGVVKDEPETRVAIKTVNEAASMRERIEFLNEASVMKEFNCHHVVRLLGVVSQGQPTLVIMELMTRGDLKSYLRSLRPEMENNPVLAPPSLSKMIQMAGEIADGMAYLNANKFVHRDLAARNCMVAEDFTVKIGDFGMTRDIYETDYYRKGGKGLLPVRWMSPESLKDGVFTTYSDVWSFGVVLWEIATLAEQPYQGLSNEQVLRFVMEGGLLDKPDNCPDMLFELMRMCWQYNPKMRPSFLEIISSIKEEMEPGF

Row | Structure (SMILES) | IC50 [µM]
1 | CCc1cnc(N2CCC(c3cc(F)c(Nc4ncc(Cl)c(Nc5cc(C)[nH]n5)n4)cc3C)CC2)nc1 [Compound 149, 5-Chloro-N2-(4-(1-(5-ethylpyrimidin-2-yl)piperidin-4-yl)-2-fluoro-5-methylphenyl)-N4-(5-methyl-1H-pyrazol-3-yl)pyrimidine-2,4-diamine] | 0.955
2 | Cc1cc(Nc2nc(Nc3cc(C)c(C4=CCNCC4)cc3F)ncc2Cl)n[nH]1 [Compound 150, 5-chloro-N2-(2-fluoro-5-methyl-4-(1,2,3,6-tetrahydropyridin-4-yl)phenyl)-N4-(5-methyl-1H-pyrazol-3-yl)pyrimidine-2,4-diamine] | 0.025
3 | Cc1cc(Nc2nc(Nc3cc(C)c(C4CCNC(=O)C4)cc3C)ncc2Cl)n[nH]1 (stereo not drawn) [Compound 151, 4-(4-(5-chloro-4-(5-methyl-1H-pyrazol-3-ylamino)pyrimidin-2-ylamino)-2,5-dimethylphenyl)piperidin-2-one] | 0.009
4 | Cc1cc(Nc2nc(Nc3cc(C)c(C4CCOC(=O)C4)cc3C)ncc2Cl)n[nH]1 (stereo not drawn) [Compound 152, 4-(4-(5-chloro-4-(5-methyl-1H-pyrazol-3-ylamino)pyrimidin-2-ylamino)-2,5-dimethylphenyl)tetrahydro-2H-pyran-2-one] | 0.155
5 | Cc1cc(Nc2nc(Nc3cc(C(F)(F)F)c(N4CCOCC4)cc3F)ncc2Cl)n[nH]1 [Compound 153, 5-chloro-N2-(2-fluoro-4-morpholino-5-(trifluoromethyl)phenyl)-N4-(5-methyl-1H-pyrazol-3-yl)pyrimidine-2,4-diamine] | 0.091
6 | Cc1cc(Nc2nc(Nc3cc(C)c(C4CCS(=O)(=O)C4)cc3C)ncc2Cl)n[nH]1 (stereo not drawn) [Compound 154, 5-Chloro-N^2-[4-(1,1-dioxo-tetrahydro-1λ^6-thiophen-3-yl)-2,5-dimethyl-phenyl]-N^4-(5-methyl-1H-pyrazol-3-yl)-pyrimidine-2,4-diamine] | 0.012
7 | Cc1cc(Nc2nc(Nc3cc(C)c(N4CCNCC4=O)cc3C)ncc2Cl)n[nH]1 [Compound 155, 1-(4-(5-chloro-4-(5-methyl-1H-pyrazol-3-ylamino)pyrimidin-2-ylamino)-2,5-dimethylphenyl)piperazin-2-one] | 1.65
8 | Cc1cc(Nc2nc(Nc3cc(C(F)(F)F)c(N4CCN(C)CC4)cc3C)ncc2Cl)n[nH]1 [Compound 156, 5-chloro-N4-(5-methyl-1H-pyrazol-3-yl)-N2-(2-methyl-4-(4-methylpiperazin-1-yl)-5-(trifluoromethyl)phenyl)pyrimidine-2,4-diamine] | 0.04
9 | Cc1cc(Nc2nc(Nc3cc(C(F)(F)F)c(N4CCN(C)CC4)cc3F)ncc2Cl)n[nH]1 [Compound 157, 5-chloro-N^2-(2-fluoro-4-(4-methylpiperazin-1-yl)-5-(trifluoromethyl)phenyl)-N^4-(5-methyl-1H-pyrazol-3-yl)pyrimidine-2,4-diamine] | 0.075
10 | Cc1cc(C2CCNCC2)c(C)cc1Nc1ncc(Cl)c(Nc2ccc[nH]c2=O)n1 [Compound 158, 3-(5-chloro-2-(2,5-dimethyl-4-(piperidin-4-yl)phenylamino)pyrimidin-4-ylamino)pyridin-2(1H)-one] | 0.062
11 | Cc1cc(Nc2nc(Nc3cc(C)c(C4CCN(C)CC4)cc3F)ncc2Cl)no1 [Compound 159, 5-chloro-N2-(2-fluoro-5-methyl-4-(1-methylpiperidin-4-yl)phenyl)-N4-(5-methylisoxazol-3-yl)pyrimidine-2,4-diamine] | 0.073
12 | Cc1cc(Nc2ncc(Cl)c(Nc3cc[nH]n3)n2)c(OC(C)C)cc1C1CCN(C)CC1 [Compound 161, 5-chloro-N2-(2-isopropoxy-5-methyl-4-(1-methylpiperidin-4-yl)phenyl)-N4-(1H-pyrazol-3-yl)pyrimidine-2,4-diamine] | 0.332
13 | CCOC(=O)N1CCC(c2cc(C)c(Nc3ncc(Cl)c(Nc4cc(C)[nH]n4)n3)cc2C)CC1 [Compound 162, ethyl 4-(4-(5-chloro-4-(5-methyl-1H-pyrazol-3-ylamino)pyrimidin-2-ylamino)-2,5-dimethylphenyl)piperidine-1-carboxylate] | 0.013
14 | Cc1cc(Nc2nc(Nc3cc(C)c(C4CCN([C@@H](C)C(N)=O)CC4)cc3F)ncc2Cl)n[nH]1 [Compound 163] | 0.056
15 | CNC(=O)[C@H](C)N1CCC(c2cc(F)c(Nc3ncc(Cl)c(Nc4cc(C)[nH]n4)n3)cc2C)CC1 [Compound 164, (S)-2-(4-(4-(5-chloro-4-(5-methyl-1H-pyrazol-3-ylamino)pyrimidin-2-ylamino)-5-fluoro-2-methylphenyl)piperidin-1-yl)-N-methylpropanamide] | 0.033
16 | Cc1cc(Nc2nc(Nc3cc(C)c(C4CCN([C@H](C)C(N)=O)CC4)cc3F)ncc2Cl)n[nH]1 [Compound 165, (R)-2-(4-(4-(5-chloro-4-(5-methyl-1H-pyrazol-3-ylamino)pyrimidin-2-ylamino)-5-fluoro-2-methylphenyl)piperidin-1-yl)propanamide] | 0.038
17 | Cc1cc(Nc2nc(Nc3cc(C)c(C4CCN([C@@H](C)C(N)=O)CC4)cc3C)ncc2Cl)n[nH]1 [Compound 166, (S)-2-(4-(4-(5-chloro-4-(5-methyl-1H-pyrazol-3-ylamino)pyrimidin-2-ylamino)-2,5-dimethylphenyl)piperidin-1-yl)propanamide] | 0.007
18 | Cc1cc(Nc2nc(Nc3cc(C)c(C4CCN([C@H](C)C(N)=O)CC4)cc3C)ncc2Cl)n[nH]1 [Compound 167, (R)-2-(4-(4-(5-chloro-4-(5-methyl-1H-pyrazol-3-ylamino)pyrimidin-2-ylamino)-2,5-dimethylphenyl)piperidin-1-yl)propanamide] | 0.006
19 | CNC(=O)[C@H](C)N1CCC(c2cc(C)c(Nc3ncc(Cl)c(Nc4cc(C)[nH]n4)n3)cc2C)CC1 [Compound 168, (S)-2-(4-(4-(5-chloro-4-(5-methyl-1H-pyrazol-3-ylamino)pyrimidin-2-ylamino)-2,5-dimethylphenyl)piperidin-1-yl)-N-methylpropanamide] | 0.01
20 | CCNC1(C(=O)N2CCC(c3cc(F)c(Nc4ncc(Cl)c(Nc5cc(C)[nH]n5)n4)cc3C)CC2)CC1 [Compound 169, (4-(4-(5-chloro-4-(5-methyl-1H-pyrazol-3-ylamino)pyrimidin-2-ylamino)-5-fluoro-2-methylphenyl)piperidin-1-yl)(1-(ethylamino)cyclopropyl)methanone] | 0.004
21 | CCNC1(C(=O)N2CCC(c3cc(C)c(Nc4ncc(Cl)c(Nc5cc(C)[nH]n5)n4)cc3C)CC2)CC1 [Compound 170, (4-(4-(5-chloro-4-(5-methyl-1H-pyrazol-3-ylamino)pyrimidin-2-ylamino)-2,5-dimethylphenyl)piperidin-1-yl)(1-(ethylamino)cyclopropyl)methanone] | 0.003
22 | Cc1cc(Nc2ncc(Cl)c(Nc3cc(C(F)(F)F)[nH]n3)n2)c(F)cc1C1CCNCC1 [Compound 171, 5-chloro-N2-(2-fluoro-5-methyl-4-(piperidin-4-yl)phenyl)-N4-(5-(trifluoromethyl)-1H-pyrazol-3-yl)pyrimidine-2,4-diamine] | 0.067
23 | CNC(=O)CN1CCC(c2cc(F)c(Nc3ncc(Cl)c(Nc4cc(C(F)(F)F)[nH]n4)n3)cc2C)CC1 [Compound 172, 2-(4-(4-(5-chloro-4-(5-(trifluoromethyl)-1H-pyrazol-3-ylamino)pyrimidin-2-ylamino)-5-fluoro-2-methylphenyl)piperidin-1-yl)-N-methylacetamide] | 0.069
24 | Cc1cc(Nc2ncc(Cl)c(Nc3cc(C(F)(F)F)[nH]n3)n2)c(F)cc1C1CCN(CC(N)=O)CC1 [Compound 173, 2-(4-(4-(5-chloro-4-(5-(trifluoromethyl)-1H-pyrazol-3-ylamino)pyrimidin-2-ylamino)-5-fluoro-2-methylphenyl)piperidin-1-yl)acetamide] | 0.049
25 | Cc1cc(Nc2nc(Nc3cc(C)c(C4CCN(C5CCSCC5)CC4)cc3C)ncc2Cl)n[nH]1 [Compound 174, 5-chloro-N2-(2,5-dimethyl-4-(1-(tetrahydro-2H-thiopyran-4-yl)piperidin-4-yl)phenyl)-N4-(5-methyl-1H-pyrazol-3-yl)pyrimidine-2,4-diamine] | 0.008
26 | CCNC(C)(C)C(=O)N1CCC(c2cc(C)c(Nc3ncc(Cl)c(Nc4cc(C)[nH]n4)n3)cc2C)CC1 [Compound 175, 1-(4-(4-(5-chloro-4-(5-methyl-1H-pyrazol-3-ylamino)pyrimidin-2-ylamino)-2,5-dimethylphenyl)piperidin-1-yl)-2-(ethylamino)-2-methylpropan-1-one] | 0.005
27 | CCNC1(C(=O)N2CCC(c3cc(F)c(Nc4ncc(Cl)c(Nc5cc(C)[nH]n5)n4)cc3C)CC2)CCC1 [Compound 176, (4-(4-(5-chloro-4-(5-methyl-1H-pyrazol-3-ylamino)pyrimidin-2-ylamino)-5-fluoro-2-methylphenyl)piperidin-1-yl)(1-(ethylamino)cyclobutyl)methanone] | 0.084
28 | CNC1(C(=O)N2CCC(c3cc(F)c(Nc4ncc(Cl)c(Nc5cc(C)[nH]n5)n4)cc3C)CC2)CCC1 [Compound 177, (4-(4-(5-chloro-4-(5-methyl-1H-pyrazol-3-ylamino)pyrimidin-2-ylamino)-5-fluoro-2-methylphenyl)piperidin-1-yl)(1-(methylamino)cyclobutyl)methanone] | 0.08
29 | Cc1cc(Nc2nc(Nc3cc(C)c(C4CCNCC4)cc3C)ncc2C)n[nH]1 [Compound 178, N2-(2,5-dimethyl-4-(piperidin-4-yl)phenyl)-5-methyl-N4-(5-methyl-1H-pyrazol-3-yl)pyrimidine-2,4-diamine] | 3.23
30 | Cc1cc(Nc2nc(Nc3cc(C)c(C4CCN(C[C@H](O)C(F)(F)F)CC4)cc3C)ncc2C)n[nH]1 [Compound 179, (S)-3-(4-(2,5-dimethyl-4-(5-methyl-4-(5-methyl-1H-pyrazol-3-ylamino)pyrimidin-2-ylamino)phenyl)piperidin-1-yl)-1,1,1-trifluoropropan-2-ol] | 0.12
